Experimental data: patent US20250026721A1, “COMPOUNDS AND METHODS FOR MODULATING RAS-PI3K” (Vividion Therapeutics, Inc., priority 2023, published 2025)

Assays:
PIK3CA = target: T1, PIK3CA (Homo sapiens, UniProt P42336); experiment: In vitro ELISA target engagement assay for PIK3CA in Jurkat cellular lysate (competition with PIK3CA Biotin Probe); assay type: binding; settings: 1 hour at rt, then 500 nM PIK3CA Biotin Probe, read-out: Elisa Target Engagement Assay (TE50)
T1 construct: endogenous in cells; host or cells: Jurkat cell lysate
Outline: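 Jurkat lysate from sonicated frozen cells was preincubated 1 h at rt with serially diluted compound up to 200 μM, then labelled 1 h at rt with PIK3CA biotin probe at 500 nM final. Probe-bound PIK3CA was captured on antibody-coated plates and detected with Neutravidin-HRP luminescence; TE50 derived from the dose response.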

PIK3CA_C242 = target: T2, PIK3CA_C242 (Homo sapiens, UniProt P42336); experiment: Proteomic TE50 (IA-DTB / TMT mass spectrometry) in Jurkat cell lysate; assay type: binding; settings: 1 hour at rt, 7-point dose response
T2 construct: endogenous in cells; host or cells: Jurkat cell lysate
Description: Example 4. Proteomic TE50 In vitro TE50 values for PIK3CA_C242 were obtained by treating 500 μg of cell lysate generated from Jurkat cells with DMSO or compound for 1 hour at rt followed by the addition of 200 μM desthiobiotin polyethyleneoxide iodoacetamide (IA-DTB) in DMSO for one hour at rt. Compounds were serially diluted 1:5 for a total of 7 points in order to generate dose response curves. Samples were then precipitated by the addition of 8× ice cold acetone and incubated at -80° C. for two hours. Protein was then pelleted by centrifugation (4,200 RPM, 45 min, 4° C.). The pelleted material was resuspended in 9M urea, 50 mM ammonium bicarbonate and proteins were reduced and alkylated by the addition of DTT and iodoacetamide (10 and 30 mM, respectively). Following reduction and alkylation, samples were exchanged into 2M urea (Zeba spin desalting plates, Thermo Fisher) and digested with Trypsin. IA-DTB labeled peptides were isolated with streptavidin agarose resin. Enriched peptides were eluted by the addition of 50% acetonitrile (ACN) 0.1% formic acid (FA) and dried in a SpeedVac vacuum concentrator. […] Reactions were quenched by the addition of 6.5 μL of 5% hydroxylamine. Samples were then combined and desalted on a Evolute express ABN plate (Biotage, 600-0010-PX01). Targeted TMT measurements were collected using an Orbitrap Lumos Tribrid Mass Spectrometer (Thermo Scientific) coupled to an UltiMate 3000 Series Rapid Separation LC system and autosampler (Thermo Scientific Dionex). Peptides were eluted onto a custom C18 capillary analytical column (75-μm inner diameter fused silica, packed with Acclaim PepMap C18 resin; Thermo Scientific) using an Acclaim PepMap 100 (Thermo 164535) loading column, and separated at a flow rate of […]. Data were acquired using a specific MS3-based TMT method targeting the peptide containing […], +2 charge state) where MS2 peptide fragmentation is triggered upon detection of the peptide precursor ion. Subsequent MS3 analysis was then performed using pre-selected peptide fragment ions that were isolated for fragmentation using synchronous precursor selection. RAW files were converted to MZXML format and searched with the SEQUEST algorithm using the […] software package. TMT quantitation was performed with a filter requiring at least ten summed signal-to-noise (S/N) for control channels. TE50 values were calculated from 7-point dose response curves created using the reporter ion S/N for each channel.

T1 sequence (P42336 whole entry): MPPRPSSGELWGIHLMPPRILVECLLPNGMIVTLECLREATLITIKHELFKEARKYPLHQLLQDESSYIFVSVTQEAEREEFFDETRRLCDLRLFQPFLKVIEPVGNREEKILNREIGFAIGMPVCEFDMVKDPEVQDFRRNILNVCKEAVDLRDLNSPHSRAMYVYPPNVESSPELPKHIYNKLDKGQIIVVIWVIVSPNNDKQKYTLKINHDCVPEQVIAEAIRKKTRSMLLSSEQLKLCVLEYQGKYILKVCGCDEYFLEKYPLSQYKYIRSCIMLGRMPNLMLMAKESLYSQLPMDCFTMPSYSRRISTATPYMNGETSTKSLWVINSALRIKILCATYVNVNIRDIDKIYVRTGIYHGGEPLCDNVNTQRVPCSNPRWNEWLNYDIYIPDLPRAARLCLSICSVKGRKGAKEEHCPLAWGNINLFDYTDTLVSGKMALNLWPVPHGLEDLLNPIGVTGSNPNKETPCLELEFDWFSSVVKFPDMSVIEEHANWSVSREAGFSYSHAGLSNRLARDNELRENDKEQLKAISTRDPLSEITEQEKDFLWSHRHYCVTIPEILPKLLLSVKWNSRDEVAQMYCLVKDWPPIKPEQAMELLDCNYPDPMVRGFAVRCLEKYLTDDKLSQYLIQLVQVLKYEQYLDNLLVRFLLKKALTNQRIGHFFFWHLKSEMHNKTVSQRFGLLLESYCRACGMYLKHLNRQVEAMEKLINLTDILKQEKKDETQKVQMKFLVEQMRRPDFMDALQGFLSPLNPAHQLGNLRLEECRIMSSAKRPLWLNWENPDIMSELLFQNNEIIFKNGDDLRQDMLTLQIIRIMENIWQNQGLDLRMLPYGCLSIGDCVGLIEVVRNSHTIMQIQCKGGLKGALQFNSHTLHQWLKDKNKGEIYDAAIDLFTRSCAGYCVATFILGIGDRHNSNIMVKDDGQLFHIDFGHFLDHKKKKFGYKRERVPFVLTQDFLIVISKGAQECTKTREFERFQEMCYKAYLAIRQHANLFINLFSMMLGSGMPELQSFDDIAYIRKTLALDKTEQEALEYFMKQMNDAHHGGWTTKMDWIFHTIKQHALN
T1 sequence (P27986 whole entry partner): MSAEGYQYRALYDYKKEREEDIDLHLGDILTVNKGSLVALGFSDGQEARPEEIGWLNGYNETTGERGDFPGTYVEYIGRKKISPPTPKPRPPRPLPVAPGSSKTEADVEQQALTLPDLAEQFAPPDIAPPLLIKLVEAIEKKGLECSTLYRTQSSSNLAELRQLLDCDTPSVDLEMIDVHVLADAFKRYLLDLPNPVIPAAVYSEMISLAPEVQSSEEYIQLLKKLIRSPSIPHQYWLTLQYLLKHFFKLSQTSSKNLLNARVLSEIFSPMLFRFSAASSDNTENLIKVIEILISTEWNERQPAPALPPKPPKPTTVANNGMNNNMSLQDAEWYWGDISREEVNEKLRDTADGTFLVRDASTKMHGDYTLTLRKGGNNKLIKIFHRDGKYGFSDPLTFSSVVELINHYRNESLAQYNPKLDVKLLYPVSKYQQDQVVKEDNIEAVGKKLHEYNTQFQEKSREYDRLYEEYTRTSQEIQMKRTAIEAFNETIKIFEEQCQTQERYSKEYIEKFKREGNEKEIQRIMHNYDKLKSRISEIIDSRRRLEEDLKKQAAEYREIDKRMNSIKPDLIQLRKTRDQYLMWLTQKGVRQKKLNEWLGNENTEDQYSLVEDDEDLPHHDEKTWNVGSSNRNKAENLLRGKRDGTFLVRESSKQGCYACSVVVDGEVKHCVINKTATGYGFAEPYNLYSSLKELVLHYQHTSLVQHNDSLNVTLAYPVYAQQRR
T2 sequence (P42336 whole entry): as the sequence (P42336 whole entry) above
T2 sequence (P27986 whole entry partner): as the sequence (P27986 whole entry partner) above

C[C@H](/C=C\S(C)(=O)=O)NC(=O)C1(F)CCN(S(=O)(=O)c2ccc(N3CCOCC3)cc2-c2ccccc2Cl)CC1 [Compound 121, (R,Z)-1-((2′-chloro-5-morpholino-[1,1′-biphenyl]-2-yl)sulfonyl)-4-fluoro-N-(4-(methylsulfonyl)but-3-en-2-yl)piperidine-4-carboxamide]
IC50 (PIK3CA): 1000 nM | IC50 (PIK3CA_C242): 880 nM

C[C@H](/C=C\S(C)(=O)=O)NC(=O)C1(F)CCN(S(=O)(=O)c2ccc(N3CCCC3)cc2-c2ccccc2Cl)CC1 [Compound 119, (R,Z)-1-((2′-chloro-5-(pyrrolidin-1-yl)-[1,1′-biphenyl]-2-yl)sulfonyl)-4-fluoro-N-(4-(methylsulfonyl)but-3-en-2-yl)piperidine-4-carboxamide]
IC50 (PIK3CA): 670 nM | IC50 (PIK3CA_C242): 460 nM

Cc1ccccc1-c1cc(OC2CC2)ccc1S(=O)(=O)N1CCC(F)(C(=O)N[C@H](C)/C=C\S(C)(=O)=O)CC1 [Compound 106, (R,Z)-1-((5-cyclopropoxy-2′-methyl-[1,1′-biphenyl]-2-yl)sulfonyl)-4-fluoro-N-(4-(methylsulfonyl)but-3-en-2-yl)piperidine-4-carboxamide]
IC50 (PIK3CA): 820 nM | IC50 (PIK3CA_C242): 310 nM

Cc1ccccc1-c1cc(N2CCC2)ccc1S(=O)(=O)N1CCC(F)(C(=O)N[C@H](C)/C=C\S(C)(=O)=O)CC1 [Compound 116, (R,Z)-1-((5-(azetidin-1-yl)-2′-methyl-[1,1′-biphenyl]-2-yl)sulfonyl)-4-fluoro-N-(4-(methylsulfonyl)but-3-en-2-yl)piperidine-4-carboxamide]
IC50 (PIK3CA): 340 nM | IC50 (PIK3CA_C242): 261 nM

COc1ccc(Cl)c(-c2cc(Cl)ccc2S(=O)(=O)N2CCC(F)(C(=O)N[C@@H](C)/C=C\S(C)(=O)=O)CC2)c1 [Compound 16, (S,Z)-1-((2′,5-dichloro-5′-methoxy-[1,1′-biphenyl]-2-yl)sulfonyl)-4-fluoro-N-(4-(methylsulfonyl)but-3-en-2-yl)piperidine-4-carboxamide]
IC50 (PIK3CA): 200 nM | IC50 (PIK3CA_C242): 210 nM

COc1cccc(-c2cc(N(C)C)ccc2S(=O)(=O)N2CCC(F)(C(=O)NC/C=C/S(C)(=O)=O)CC2)c1 [Compound 96, (E)-1-((5-(dimethylamino)-3′-methoxy-[1,1′-biphenyl]-2-yl)sulfonyl)-4-fluoro-N-(3-(methylsulfonyl)allyl)piperidine-4-carboxamide]
IC50 (PIK3CA_C242): 410 nM

COc1cccc(-c2ccccc2S(=O)(=O)N2CCC(F)(C(=O)NC/C=C/S(=O)(=O)C3CCN(C)CC3)CC2)c1 [Compound 228, (E)-4-fluoro-1-((3′-methoxy-[1,1′-biphenyl]-2-yl)sulfonyl)-N-(3-((1-methylpiperidin-4-yl)sulfonyl)allyl)piperidine-4-carboxamide]
IC50 (PIK3CA_C242): 690 nM

C[C@H](/C=C\S(C)(=O)=O)NC(=O)C1(F)CCN(S(=O)(=O)c2ccc(C3CCC3)cc2-c2ccccc2Cl)CC1 [Compound 98, (R,Z)-1-((2′-chloro-5-cyclobutyl-[1,1′-biphenyl]-2-yl)sulfonyl)-4-fluoro-N-(4-(methylsulfonyl)but-3-en-2-yl)piperidine-4-carboxamide]
IC50 (PIK3CA_C242): 520 nM

C[C@H](/C=C\S(C)(=O)=O)NC(=O)C1(F)CCN(S(=O)(=O)c2ccc(C3CN(C(=O)OC(C)(C)C)C3)cc2-c2ccccc2Cl)CC1 [Compound 99, tert-butyl (R,Z)-3-(2′-chloro-6-((4-fluoro-4-((4-(methylsulfonyl)but-3-en-2-yl)carbamoyl)piperidin-1-yl)sulfonyl)-[1,1′-biphenyl]-3-yl)azetidine-1-carboxylate]
IC50 (PIK3CA_C242): 830 nM

Cc1ccccc1-c1cc(OC(C)C)ccc1S(=O)(=O)N1CCC(F)(C(=O)N[C@H](C)/C=C\S(C)(=O)=O)CC1 [Compound 103, (R,Z)-4-fluoro-1-((5-isopropoxy-2′-methyl-[1,1′-biphenyl]-2-yl)sulfonyl)-N-(4-(methylsulfonyl)but-3-en-2-yl)piperidine-4-carboxamide]
IC50 (PIK3CA_C242): 830 nM

Cc1ccccc1-c1cc(N2CCCC2)ccc1S(=O)(=O)N1CCC(F)(C(=O)N[C@H](C)/C=C\S(C)(=O)=O)CC1 [Compound 120, (R,Z)-4-fluoro-1-((2′-methyl-5-(pyrrolidin-1-yl)-[1,1′-biphenyl]-2-yl)sulfonyl)-N-(4-(methylsulfonyl)but-3-en-2-yl)piperidine-4-carboxamide]
IC50 (PIK3CA_C242): 250 nM

COc1ccc(S(=O)(=O)N2CCC(F)(C(=O)NC/C=C/S(C)(=O)=O)CC2)c(-c2cccc(Cl)c2)c1 [Compound 41, (E)-1-((3′-chloro-5-methoxy-[1,1′-biphenyl]-2-yl)sulfonyl)-4-fluoro-N-(3-(methylsulfonyl)allyl)piperidine-4-carboxamide]
IC50 (PIK3CA_C242): 290 nM

CN(C)c1ccc(S(=O)(=O)N2CCC(F)(C(=O)NC/C=C/C#N)CC2)c(-c2ccccc2Cl)c1 [Compound 97, (E)-1-((2′-chloro-5-(dimethylamino)-[1,1′-biphenyl]-2-yl)sulfonyl)-N-(3-cyanoallyl)-4-fluoropiperidine-4-carboxamide]
IC50 (PIK3CA_C242): 370 nM

C[C@H](/C=C\S(C)(=O)=O)NC(=O)C1(F)CCN(S(=O)(=O)c2ccc(OC3CC3)cc2-c2ccccc2Cl)CC1 [Compound 101, (R,Z)-1-((2′-chloro-5-cyclopropoxy-[1,1′-biphenyl]-2-yl)sulfonyl)-4-fluoro-N-(4-(methylsulfonyl)but-3-en-2-yl)piperidine-4-carboxamide]
IC50 (PIK3CA_C242): 860 nM

COc1ccc(S(=O)(=O)N2CCC(F)(C(=O)N[C@@H](C)/C=C\S(C)(=O)=O)CC2)c(-c2ccccc2Cl)c1 [Compound 11, (S,Z)-1-((2′-chloro-5-methoxy-[1,1′-biphenyl]-2-yl)sulfonyl)-4-fluoro-N-(4-(methylsulfonyl)but-3-en-2-yl)piperidine-4-carboxamide]
IC50 (PIK3CA_C242): 70.1 nM

COc1cccc(-c2cc(Br)ccc2S(=O)(=O)N2CCC(F)(C(=O)N[C@@H](C)/C=C\S(C)(=O)=O)CC2)c1 [Compound 61, (S,Z)-1-((5-bromo-3′-methoxy-[1,1′-biphenyl]-2-yl)sulfonyl)-4-fluoro-N-(4-(methylsulfonyl)but-3-en-2-yl)piperidine-4-carboxamide]
IC50 (PIK3CA_C242): 66.7 nM

C[C@@H](/C=C\S(C)(=O)=O)NC(=O)C1(F)CCN(S(=O)(=O)c2ccc(N(C)C)cc2-c2ccccc2Cl)CC1 [Compound 89, (S,Z)-1-((2′-chloro-5-(dimethylamino)-[1,1′-biphenyl]-2-yl)sulfonyl)-4-fluoro-N-(4-(methylsulfonyl)but-3-en-2-yl)piperidine-4-carboxamide]
IC50 (PIK3CA_C242): 47 nM

CC#Cc1cccc(-c2cc(Cl)ccc2S(=O)(=O)N2CCC(F)(C(=O)NC/C=C/S(C)(=O)=O)CC2)c1 [Compound 46, (E)-1-((5-chloro-3′-(prop-1-yn-1-yl)-[1,1′-biphenyl]-2-yl)sulfonyl)-4-fluoro-N-(3-(methylsulfonyl)allyl)piperidine-4-carboxamide]
IC50 (PIK3CA_C242): 460 nM

CN(C)c1ccc(S(=O)(=O)N2CCC(F)(C(=O)NC/C=C/S(C)(=O)=O)CC2)c(-c2ccccc2)c1 [Compound 94, (E)-1-((5-(dimethylamino)-[1,1′-biphenyl]-2-yl)sulfonyl)-4-fluoro-N-(3-(methylsulfonyl)allyl)piperidine-4-carboxamide]
IC50 (PIK3CA_C242): 190 nM

C[C@H](/C=C\S(C)(=O)=O)NC(=O)C1(F)CCN(S(=O)(=O)c2cnc(O)cc2-c2ccccc2Cl)CC1 [Compound 276, (R,Z)-1-((4-(2-chlorophenyl)-6-hydroxypyridin-3-yl)sulfonyl)-4-fluoro-N-(4-(methylsulfonyl)but-3-en-2-yl)piperidine-4-carboxamide]
IC50 (PIK3CA_C242): 570 nM

CS(=O)(=O)/C=C/CNC(=O)C1(F)CCN(S(=O)(=O)c2ccc(Cl)cc2-c2ccccc2)CC1 [Compound 37, (E)-1-((5-chloro-[1,1′-biphenyl]-2-yl)sulfonyl)-4-fluoro-N-(3-(methylsulfonyl)allyl)piperidine-4-carboxamide]
IC50 (PIK3CA_C242): 297 nM

COc1cccc(-c2cc(C)ccc2S(=O)(=O)N2CCC(F)(C(=O)NC/C=C/S(C)(=O)=O)CC2)c1 [Compound 42, (E)-4-fluoro-1-((3′-methoxy-5-methyl-[1,1′-biphenyl]-2-yl)sulfonyl)-N-(3-(methylsulfonyl)allyl)piperidine-4-carboxamide]
IC50 (PIK3CA_C242): 624 nM
